From patent publication US11124553B2, “TDP-43 mitochondrial localization inhibitor for the treatment of neurogenerative disease” (Case Western Reserve University, priority 2016, dated 2021)
Read-outs that look alike come from different tables or passages of the source. Ends that are not written are not given here.

Columns and labels:
cells = details: data not shown
[1] = continuous subcutaneous infusion
Description: Mice surgery/procedures were performed according to the NIH guidelines and were approved by the Institutional Animal Care and Use Committee (IACUC) at Case Western Reserve University. C57BL/6 non-transgenic wild type mice (NTG mice), Prnp-TARDBP mice (TDP-43 WT Tg mice) and Prnp-TARDBP*A315T mice (TDP-43 A315T Tg mice) were purchased from the Jackson Laboratory (Bar Harbor, Me.). Mice were infused subcutaneously with mini-osmotic pumps (Alzet Model 2004, Cupertino, Calif.; flow rate of 0.25 μl/hour). One day before implantation, mini-osmotic pumps were filled with 200 μl PBS containing cPM or PM1 peptides (0.5 mg/kg/Day) followed by pump incubation in PBS at 37 overnight according to the manufacturer's instructions. For surgery, male mice were anesthetized with avertin. A small incision was made at the back of mouse and mini-osmotic pump were implanted subcutaneously. After treatment, mice were deeply anesthetized with avertin and transcardially perfused with cold PBS and spinal cord and brain tissues were collected followed by fractionation, western blot or immunostaining.

[2] = 1.5 mg/kg/day s.c. infusion for 6 weeks; data not shown

YGRKKRRQRRRSKGFGFVRF [PM3]
toxic effect on cells (cells): mild toxic effect

YGRKKRRQRRRAQFPGACGL [PM1]
detection in mitochondrial compartments [1]: detected in all mitochondrial compartments
reaching the central nervous system [1]: reached the central nervous system
reaching the central nervous system [2]: reached the central nervous system
